According to patent US20130102556A1, “Use of N1,N4-bis[3-(Ethylamino)Propyl]-2-Butene-1,4-Diamine Compounds in Combination with Epigenetic-Acting Pharmaceuticals for Enhanced Cancer Therapy” (THE JOHNS HOPKINS UNIVERSITY, priority 2010, published 2013):

Tests used:
acetylated H3K9 (AcH3K9) = assay: Global acetylated H3K9 histone mark in Calu-6 cells, Western blot of nuclear protein; type: cell-based, human; conditions: Calu-6, increasing doses, 24 and 48 hours
H3K4me2 = assay: Global H3K4me2 histone mark in Calu-6 cells, Western blot of nuclear protein; type: cell-based, human; conditions: Calu-6, increasing doses (1, 5, 10 μM), 24 hours of treatment

CCNCCCNC/C=C\CNCCCNCC [PG-11047, (2Z)-N1,N4-bis[3-(ethylamino)propyl]-2-butene-1,4-diamine]
increase in global amounts of acetylated H3K9 protein (acetylated H3K9 (AcH3K9)): 2-3 fold
increase in H3K4me2 protein (H3K4me2): 2-4 fold
